Assay results as given in publication PMC11213733, “Computational approaches identify a transcriptomic fingerprint of drug-induced structural cardiotoxicity” (Cell Biology and Toxicology, 2024).
Structures can show the parent of a compound that is named as a salt.

Experiments:
[1] = ref FDA label, cited from earlier work; for Structural cardiotoxin?: FDA label references heart failure or a decrease in left ventricular ejection fraction; for Functional cardiotoxin?: compound annotation
cardiac microtissues [2] = experiment: Transcriptomic profiling (mRNA-seq) and DESeq2 differential gene expression analysis in cardiac microtissues; details: absolute log2(Fold-Change) > 1, FDR p ≤ 0.05; for number of significant differentially expressed genes, 6hr high / number of significant differentially expressed genes, 48hr high / number of significant differentially expressed genes, 72hr high: high concentration; for number of significant differentially expressed genes, 6hr low / number of significant differentially expressed genes, 48hr low / number of significant differentially expressed genes, 72hr low: low concentration
cardiac microtissues [3] = experiment: Ingenuity Pathway Analysis over-representation of differentially expressed genes (activation Z-score); format: cell-based, human; details: 48hr high; Group 1

C#Cc1cccc(Nc2ncnc3cc(OCCOC)c(OCCOC)cc23)c1 [Erlotinib]
Structural cardiotoxin? [1]: N | Functional cardiotoxin? [1]: Y | number of significant differentially expressed genes, 6hr high (cardiac microtissues [2]): 56 | number of significant differentially expressed genes, 6hr low (cardiac microtissues [2]): 39 | number of significant differentially expressed genes, 48hr high (cardiac microtissues [2]): 634 | number of significant differentially expressed genes, 48hr low (cardiac microtissues [2]): 152 | number of significant differentially expressed genes, 72hr high (cardiac microtissues [2]): 283 | number of significant differentially expressed genes, 72hr low (cardiac microtissues [2]): 78 | activation Z-score: Cardiac Hypertrophy Signaling (cardiac microtissues [3]): -2.236 | activation Z-score: Cell Cycle Control of Chromosomal Replication (cardiac microtissues [3]): -3.742 | activation Z-score: Cell Cycle Regulation by BTG Family Proteins (cardiac microtissues [3]): -2 | activation Z-score: Cyclins and Cell Cycle Regulation (cardiac microtissues [3]): -2.111 | activation Z-score: D-myo-inositol-5-phosphate Metabolism (cardiac microtissues [3]): -2.449 | activation Z-score: DNA Methylation and Transcriptional Repression Signaling (cardiac microtissues [3]): -2.646 | activation Z-score: Estrogen-mediated S-phase Entry (cardiac microtissues [3]): -2.121 | activation Z-score: Factors Promoting Cardiogenesis in Vertebrates (cardiac microtissues [3]): -0.816 | activation Z-score: G-Protein Coupled Receptor Signaling (cardiac microtissues [3]): -2.357 | activation Z-score: GP6 Signaling Pathway (cardiac microtissues [3]): -1.633 | activation Z-score: Glioma Invasiveness Signaling (cardiac microtissues [3]): -2 | activation Z-score: HIF1Î± Signaling (cardiac microtissues [3]): -2.121 | activation Z-score: HMGB1 Signaling (cardiac microtissues [3]): -2.236 | activation Z-score: Hepatic Fibrosis Signaling Pathway (cardiac microtissues [3]): -2.138 | activation Z-score: ILK Signaling (cardiac microtissues [3]): -1.134 | activation Z-score: Insulin Secretion Signaling Pathway (cardiac microtissues [3]): -2.121 | activation Z-score: Integrin Signaling (cardiac microtissues [3]): -2.449 | activation Z-score: Kinetochore Metaphase Signaling Pathway (cardiac microtissues [3]): -3.402 | activation Z-score: Mitotic Roles of Polo-Like Kinase (cardiac microtissues [3]): -2.309 | activation Z-score: Protein Kinase A Signaling (cardiac microtissues [3]): -1.155 | activation Z-score: Pyridoxal 5'-phosphate Salvage Pathway (cardiac microtissues [3]): -2.646 | activation Z-score: RHOGDI Signaling (cardiac microtissues [3]): 1.89 | activation Z-score: Regulation Of The Epithelial Mesenchymal Transition By Growth Factors Pathway (cardiac microtissues [3]): -2.449 | activation Z-score: Role of NFAT in Cardiac Hypertrophy (cardiac microtissues [3]): -2 | activation Z-score: Salvage Pathways of Pyrimidine Ribonucleotides (cardiac microtissues [3]): -2.828 | activation Z-score: Senescence Pathway (cardiac microtissues [3]): 0.728 | activation Z-score: Sphingosine-1-phosphate Signaling (cardiac microtissues [3]): -2 | activation Z-score: Superpathway of Inositol Phosphate Compounds (cardiac microtissues [3]): -2.449 | activation Z-score: Thrombin Signaling (cardiac microtissues [3]): -2.236 | activation Z-score: White Adipose Tissue Browning Pathway (cardiac microtissues [3]): -1.633 | activation Z-score: Wound Healing Signaling Pathway (cardiac microtissues [3]): -2.111 | activation Z-score: cAMP-mediated signaling (cardiac microtissues [3]): -1.633 | activation Z-score: tRNA Charging (cardiac microtissues [3]): 2.646

O=c1[nH]cc(F)c(=O)[nH]1 [Fluorouracil]
Structural cardiotoxin? [1]: Y | Functional cardiotoxin? [1]: Y | number of significant differentially expressed genes, 6hr high (cardiac microtissues [2]): 0 | number of significant differentially expressed genes, 6hr low (cardiac microtissues [2]): 0 | number of significant differentially expressed genes, 48hr high (cardiac microtissues [2]): 401 | number of significant differentially expressed genes, 48hr low (cardiac microtissues [2]): 1 | number of significant differentially expressed genes, 72hr high (cardiac microtissues [2]): 366 | number of significant differentially expressed genes, 72hr low (cardiac microtissues [2]): 200 | activation Z-score: BER (Base Excision Repair) Pathway (cardiac microtissues [3]): -2.236 | activation Z-score: Cell Cycle Control of Chromosomal Replication (cardiac microtissues [3]): -4.359 | activation Z-score: Cell Cycle Regulation by BTG Family Proteins (cardiac microtissues [3]): -1.342 | activation Z-score: Cyclins and Cell Cycle Regulation (cardiac microtissues [3]): -2.714 | activation Z-score: DNA Methylation and Transcriptional Repression Signaling (cardiac microtissues [3]): -1.414 | activation Z-score: Estrogen-mediated S-phase Entry (cardiac microtissues [3]): -2.333 | activation Z-score: G-Protein Coupled Receptor Signaling (cardiac microtissues [3]): -1 | activation Z-score: Kinetochore Metaphase Signaling Pathway (cardiac microtissues [3]): -3.772 | activation Z-score: Mismatch Repair in Eukaryotes (cardiac microtissues [3]): -2 | activation Z-score: Mitotic Roles of Polo-Like Kinase (cardiac microtissues [3]): -2.309 | activation Z-score: NER (Nucleotide Excision Repair, Enhanced Pathway) (cardiac microtissues [3]): -1.414 | activation Z-score: Protein Kinase A Signaling (cardiac microtissues [3]): 2 | activation Z-score: Pyridoxal 5'-phosphate Salvage Pathway (cardiac microtissues [3]): -1.89 | activation Z-score: RHOGDI Signaling (cardiac microtissues [3]): 2 | activation Z-score: Salvage Pathways of Pyrimidine Ribonucleotides (cardiac microtissues [3]): -2.121 | activation Z-score: Senescence Pathway (cardiac microtissues [3]): 2.324 | activation Z-score: Superpathway of Inositol Phosphate Compounds (cardiac microtissues [3]): -0.447

CC(=O)[C@]1(O)Cc2c(O)c3c(c(O)c2[C@@H](O[C@H]2C[C@H](N)[C@H](O)[C@H](C)O2)C1)C(=O)c1ccccc1C3=O [Idarubicin HCl]
Structural cardiotoxin? [1]: Y | Functional cardiotoxin? [1]: Y | number of significant differentially expressed genes, 6hr high (cardiac microtissues [2]): 24 | number of significant differentially expressed genes, 6hr low (cardiac microtissues [2]): 12 | number of significant differentially expressed genes, 48hr high (cardiac microtissues [2]): 2838 | number of significant differentially expressed genes, 48hr low (cardiac microtissues [2]): 578 | number of significant differentially expressed genes, 72hr high (cardiac microtissues [2]): 1616 | number of significant differentially expressed genes, 72hr low (cardiac microtissues [2]): 864 | activation Z-score: Acute Phase Response Signaling (cardiac microtissues [3]): -0.816 | activation Z-score: Apelin Liver Signaling Pathway (cardiac microtissues [3]): -0.707 | activation Z-score: BER (Base Excision Repair) Pathway (cardiac microtissues [3]): -2.333 | activation Z-score: Cardiac Hypertrophy Signaling (cardiac microtissues [3]): -1.732 | activation Z-score: Cardiomyocyte Differentiation via BMP Receptors (cardiac microtissues [3]): -2.236 | activation Z-score: Cell Cycle Control of Chromosomal Replication (cardiac microtissues [3]): -3.71 | activation Z-score: Cell Cycle Regulation by BTG Family Proteins (cardiac microtissues [3]): -1.342 | activation Z-score: Cyclins and Cell Cycle Regulation (cardiac microtissues [3]): -1.941 | activation Z-score: D-myo-inositol-5-phosphate Metabolism (cardiac microtissues [3]): 0.258 | activation Z-score: DNA Methylation and Transcriptional Repression Signaling (cardiac microtissues [3]): -0.535 | activation Z-score: Estrogen-mediated S-phase Entry (cardiac microtissues [3]): -1.897 | activation Z-score: Factors Promoting Cardiogenesis in Vertebrates (cardiac microtissues [3]): -2.117 | activation Z-score: G-Protein Coupled Receptor Signaling (cardiac microtissues [3]): 0.53 | activation Z-score: GP6 Signaling Pathway (cardiac microtissues [3]): 0.378 | activation Z-score: Glioma Invasiveness Signaling (cardiac microtissues [3]): -0.632 | activation Z-score: HIF1Î± Signaling (cardiac microtissues [3]): 0.209 | activation Z-score: HMGB1 Signaling (cardiac microtissues [3]): -0.577 | activation Z-score: Hepatic Fibrosis Signaling Pathway (cardiac microtissues [3]): -1.508 | activation Z-score: ILK Signaling (cardiac microtissues [3]): -3 | activation Z-score: Insulin Secretion Signaling Pathway (cardiac microtissues [3]): -0.192 | activation Z-score: Integrin Signaling (cardiac microtissues [3]): -1.877 | activation Z-score: Kinetochore Metaphase Signaling Pathway (cardiac microtissues [3]): -2.556 | activation Z-score: Mismatch Repair in Eukaryotes (cardiac microtissues [3]): -2.333 | activation Z-score: Mitotic Roles of Polo-Like Kinase (cardiac microtissues [3]): -1.604 | activation Z-score: NER (Nucleotide Excision Repair, Enhanced Pathway) (cardiac microtissues [3]): -2.183 | activation Z-score: Nitric Oxide Signaling in the Cardiovascular System (cardiac microtissues [3]): 0.775 | activation Z-score: Protein Kinase A Signaling (cardiac microtissues [3]): 0.302 | activation Z-score: Pyridoxal 5'-phosphate Salvage Pathway (cardiac microtissues [3]): -1 | activation Z-score: RHOGDI Signaling (cardiac microtissues [3]): 0.816 | activation Z-score: Regulation Of The Epithelial Mesenchymal Transition By Growth Factors Pathway (cardiac microtissues [3]): -1.147 | activation Z-score: Role of NFAT in Cardiac Hypertrophy (cardiac microtissues [3]): -1.512 | activation Z-score: SPINK1 General Cancer Pathway (cardiac microtissues [3]): 2.333 | activation Z-score: Salvage Pathways of Pyrimidine Ribonucleotides (cardiac microtissues [3]): -1 | activation Z-score: Senescence Pathway (cardiac microtissues [3]): 1.768 | activation Z-score: Sphingosine-1-phosphate Signaling (cardiac microtissues [3]): 0 | activation Z-score: Superpathway of Inositol Phosphate Compounds (cardiac microtissues [3]): 0.894 | activation Z-score: Thrombin Signaling (cardiac microtissues [3]): -0.471 | activation Z-score: White Adipose Tissue Browning Pathway (cardiac microtissues [3]): -2.449 | activation Z-score: Wound Healing Signaling Pathway (cardiac microtissues [3]): -0.164 | activation Z-score: cAMP-mediated signaling (cardiac microtissues [3]): 0
